Test results: patent US20090286770A1, “Use of Staurosporine Derivatives for the Treatment of Multiple Myeloma” (priority 2004, published 2009)

System: cell lines harbouring ras or FGFR3 activating mutations especially multiple myeloma cell lines
Experiment: potency toward cell lines harbouring ras or FGFR3 activating mutations
Assay type: cell-based
Conditions: especially multiple myeloma cell lines harbouring the ras or FGFR3

Compound: CO[C@@H]1[C@H](N(C)C(=O)c2ccccc2)C[C@H]2O[C@]1(C)n1c3ccccc3c3c4c(c5c6ccccc6n2c5c31)C(=O)NC4 [MIDOSTAURIN, N-[(9S,10R,11R,13R)-2,3,10,11,12,13-hexahydro-10-methoxy-9-methyl-1-oxo-9,13-epoxy-1H,9H-diindolo[1,2,3-gh:3′,2′,1′-lm]pyrrolo[3,4-j][1,7]benzodiazonin-11-yl]-N-methylbenzamide]
- potency toward cell lines harbouring ras or FGFR3 activating mutations: unexpected high potency
